Laboratory results taken from US10238631B2, “Sesquiterpene derivatives and their use in inflammation or cancer treatment” (Academia Sinica, priority 2014, dated 2019).
pIC50: −log10 of the molar value.

tested on: MCF-7 (ER+, Her2−) human breast cancer cells; test: MTT cell viability assay, MCF-7 cells; type: cell-based; conditions: MCF7, 24 h, read-out: IC50 on cell viability, MCF-7 (ER+, Her2−)
Procedure: (§1) Normal or cancer cells (2×10^3 to 1×10^4 cells/well) were seeded in 96-well plate for overnight and treated with different compounds for 24 h to 72 h. Cells growth were determined by MTT-based colorimetric assays according to. Viability of the test cells treated with vehicle (0.5% DMSO) only was defined as 100% viable. Survival of cells after treatment with DETDs was calculated using the following formula: viable cell number (%)=OD570 (treated cell culture)/OD570 (vehicle control)×100.
(§2) Sixty DETDs were derived from parental compound […] and tested for anti-breast cancer cell activity.

Structure (SMILES)	pIC50
C=C1C(=O)OC2CC3=C[C@@H](C/C(C)=C/C(OC(=O)CC(C)CC)[C@H]12)OC3=O (stereo partly drawn) [DETD-18]	5.59
C=C1C(=O)OC2CC3=C[C@@H](C/C(C)=C/C(OC(=O)CC(O)(C(C)C)C(C)C)[C@H]12)OC3=O (stereo partly drawn) [DETD-23]	5.60
C=C1C(=O)OC2CC3=C[C@@H](C/C(C)=C/C(OC(=O)CC(C)C)[C@H]12)OC3=O (stereo partly drawn) [DETD-10]	5.47
C=C1C(=O)OC2CC3=C[C@@H](C/C(C)=C/C(OC(=O)C(CC)CC)[C@H]12)OC3=O (stereo partly drawn) [DETD-16]	5.41

tested on: A2058 (BRAF mutation); test: MTT cell viability assay, A2058 melanoma; type: cell-based, human; conditions: Homo sapiens, A2058, 24 h
Procedure: as §1
(§3) Several genes are involved in melanoma development and pathology; specifically, mutation in V-raf murine sarcoma viral oncogene homolog B1 (B-RAF) occurs approximately 50-60% and in neuroblastoma RAS viral oncogene homolog (N-RAS) occurs about 30% of malignant melanomas. A spectrum of wild-type or mutated melanoma cell lines including B16-F10, MeWo, A375, A2058, HTB-68, and melanocyte were used to study anti-melanoma cell proliferation activity of parental phytocompound DET and newly synthesized DETDs.

Structure (SMILES)	pIC50
C=C1C(=O)OC2CC3=C[C@@H](C/C(C)=C/C(OC(=O)CC(C)CC)[C@H]12)OC3=O (stereo partly drawn) [DETD-18]	< 5.00
C=C1C(=O)OC2CC3=C[C@@H](C/C(C)=C/C(OC(=O)CC(O)(C(C)C)C(C)C)[C@H]12)OC3=O (stereo partly drawn) [DETD-23]	< 5.00
C=C1C(=O)OC2CC3=C[C@@H](C/C(C)=C/C(OC(=O)CC(C)C)[C@H]12)OC3=O (stereo partly drawn) [DETD-10]	< 5.00
C=C1C(=O)OC2CC3=C[C@@H](C/C(C)=C/C(OC(=O)C(CC)CC)[C@H]12)OC3=O (stereo partly drawn) [DETD-16]	< 5.00

tested on: B16-F10 (NRAS mutation); test: MTT cell viability assay, B16-F10 melanoma; type: cell-based; conditions: Mus musculus, B16-F10, 24 h, 24 h, read-out: IC50 on cell viability, B16-F10 (NRAS mutation)
Procedure: as §1, §3

Structure (SMILES)	pIC50
C=C1C(=O)OC2CC3=C[C@@H](C/C(C)=C/C(OC(=O)CC(C)CC)[C@H]12)OC3=O (stereo partly drawn) [DETD-18]	5.08
C=C1C(=O)OC2CC3=C[C@@H](C/C(C)=C/C(OC(=O)CC(C)C)[C@H]12)OC3=O (stereo partly drawn) [DETD-10]	5.22
C=C1C(=O)OC2CC3=C[C@@H](C/C(C)=C/C(OC(=O)C(CC)CC)[C@H]12)OC3=O (stereo partly drawn) [DETD-16]	< 5.00

same assay, conditions: Mus musculus, B16-F10, 24 h, read-out: IC50 on cell viability, B16-F10 (NRAS mutation)

Structure (SMILES)	pIC50
C=C1C(=O)OC2CC3=C[C@@H](C/C(C)=C/C(OC(=O)CC(O)(C(C)C)C(C)C)[C@H]12)OC3=O (stereo partly drawn) [DETD-23]	5.07

tested on: M10 normal mammary epithelial cells; test: MTT cell viability assay, M10 normal cells; type: cell-based, human; conditions: Homo sapiens, Epithelial cell, 24 h
Procedure: as §1, §2

Structure (SMILES)	pIC50
C=C1C(=O)OC2CC3=C[C@@H](C/C(C)=C/C(OC(=O)CC(C)CC)[C@H]12)OC3=O (stereo partly drawn) [DETD-18]	< 5.12
C=C1C(=O)OC2CC3=C[C@@H](C/C(C)=C/C(OC(=O)CC(O)(C(C)C)C(C)C)[C@H]12)OC3=O (stereo partly drawn) [DETD-23]	< 5.12
C=C1C(=O)OC2CC3=C[C@@H](C/C(C)=C/C(OC(=O)CC(C)C)[C@H]12)OC3=O (stereo partly drawn) [DETD-10]	< 5.12
C=C1C(=O)OC2CC3=C[C@@H](C/C(C)=C/C(OC(=O)C(CC)CC)[C@H]12)OC3=O (stereo partly drawn) [DETD-16]	< 5.12

tested on: MDA-MB-231 (ER−, PR−, Her2−) human breast cancer cells; test: MTT cell viability assay, MDA-MB-231 cells; type: cell-based; conditions: Homo sapiens, MDA-MB-231, 24 h, read-out: IC50 on cell viability, MDA-MB-231 (ER−, PR−, Her2−)
Procedure: as §1, §2

Structure (SMILES)	pIC50
C=C1C(=O)OC2CC3=C[C@@H](C/C(C)=C/C(OC(=O)CC(C)CC)[C@H]12)OC3=O (stereo partly drawn) [DETD-18]	5.26
C=C1C(=O)OC2CC3=C[C@@H](C/C(C)=C/C(OC(=O)CC(O)(C(C)C)C(C)C)[C@H]12)OC3=O (stereo partly drawn) [DETD-23]	5.23
C=C1C(=O)OC2CC3=C[C@@H](C/C(C)=C/C(OC(=O)CC(C)C)[C@H]12)OC3=O (stereo partly drawn) [DETD-10]	5.23
C=C1C(=O)OC2CC3=C[C@@H](C/C(C)=C/C(OC(=O)C(CC)CC)[C@H]12)OC3=O (stereo partly drawn) [DETD-16]	5.15

tested on: A375 (BRAF mutation); test: MTT cell viability assay, A375 melanoma; type: cell-based, human; conditions: Homo sapiens, A-375, 24 h, 24 h, MTT; read-out: IC50 on cell viability, A375 (BRAF mutation)
Procedure: as §1, §3
To investigate whether or not DETD-35 show synergism with PLX4032 against A375 melanoma cells, we performed anti-proliferation assay using MTT reagent to obtain IC50 of each compound. […] The synergistic effect was quantified by combination index (CI) analysis as stated above.

Structure (SMILES)	pIC50
C=C1C(=O)OC2CC3=C[C@@H](C/C(C)=C/C(OC(=O)CC(C)CC)[C@H]12)OC3=O (stereo partly drawn) [DETD-18]	< 5.00
C=C1C(=O)OC2CC3=C[C@@H](C/C(C)=C/C(OC(=O)CC(C)C)[C@H]12)OC3=O (stereo partly drawn) [DETD-10]	< 5.00
C=C1C(=O)OC2CC3=C[C@@H](C/C(C)=C/C(OC(=O)C(CC)CC)[C@H]12)OC3=O (stereo partly drawn) [DETD-16]	< 5.00

same assay, conditions: Homo sapiens, A-375, 24 h, read-out: IC50 on cell viability, A375 (BRAF mutation)

Structure (SMILES)	pIC50
C=C1C(=O)OC2CC3=C[C@@H](C/C(C)=C/C(OC(=O)CC(O)(C(C)C)C(C)C)[C@H]12)OC3=O (stereo partly drawn) [DETD-23]	< 5.00

tested on: HTB-68 (NRAS mutation); test: MTT cell viability assay, HTB-68 melanoma; type: cell-based, human; conditions: Homo sapiens, 24 h
Procedure: as §1, §3

Structure (SMILES)	pIC50
C=C1C(=O)OC2CC3=C[C@@H](C/C(C)=C/C(OC(=O)CC(C)CC)[C@H]12)OC3=O (stereo partly drawn) [DETD-18]	< 5.00
C=C1C(=O)OC2CC3=C[C@@H](C/C(C)=C/C(OC(=O)CC(O)(C(C)C)C(C)C)[C@H]12)OC3=O (stereo partly drawn) [DETD-23]	< 5.00
C=C1C(=O)OC2CC3=C[C@@H](C/C(C)=C/C(OC(=O)CC(C)C)[C@H]12)OC3=O (stereo partly drawn) [DETD-10]	< 5.00
C=C1C(=O)OC2CC3=C[C@@H](C/C(C)=C/C(OC(=O)C(CC)CC)[C@H]12)OC3=O (stereo partly drawn) [DETD-16]	< 5.00

tested on: LPS-induced nitric oxide (NO) production in RAW 264.7 cells; test: Nitric oxide production in LPS-stimulated macrophages (Griess); type: cell-based, mouse; conditions: Mus musculus; LPS-stimulated RAW264.7, nitrite 24 h after LPS
Procedure: (§4) Marcophages (2×10^5 cells/well in 96-well plate) were treated with compounds for 1 h, then incubated further for 24 h with or without the presence of […] LPS in the cultural medium. Nitrite levels in cell culture medium were determined by the Griess reaction method. In parallel to the Griess assays, macrophage cell viabilities were determined using the MTT based colorimetric assay.
LPS from the outer membrane of Gram-negative bacteria can induce mRNA or protein levels of inducible nitric oxide synthase (iNOS), which catalyzes oxidative deamination of L-arginine to produce nitric oxide (NO). Once NO is predominantly produced, it interacts with superoxide anion and generates highly reactive oxidants resulting in cellular inflammation, DNA, protein and tissue damages, carcinogenesis, and antiapoptosis. We used in vitro LPS stimulated inflammation in RAW264.7 cell system to evaluate the effect of DET and its derivatives DETDs on NO production by determination of nitrite level (equivalent to NO level) in culture medium 24 h after LPS treatment.

Structure (SMILES)	pIC50
C=C1C(=O)OC2CC3=C[C@@H](C/C(C)=C/C(OC(=O)CC(C)CC)[C@H]12)OC3=O (stereo partly drawn) [DETD-18]	5.47
C=C1C(=O)OC2CC3=C[C@@H](C/C(C)=C/C(OC(=O)CC(O)(C(C)C)C(C)C)[C@H]12)OC3=O (stereo partly drawn) [DETD-23]	5.42
C=C1C(=O)OC2CC3=C[C@@H](C/C(C)=C/C(OC(=O)CC(C)C)[C@H]12)OC3=O (stereo partly drawn) [DETD-10]	5.74
C=C1C(=O)OC2CC3=C[C@@H](C/C(C)=C/C(OC(=O)C(CC)CC)[C@H]12)OC3=O (stereo partly drawn) [DETD-16]	5.49

tested on: Melanocyte (Normal cells); test: MTT cell viability assay, normal melanocytes; type: cell-based, human; conditions: Homo sapiens, Melanocyte, 24 h
Procedure: as §1, §3

Structure (SMILES)	pIC50
C=C1C(=O)OC2CC3=C[C@@H](C/C(C)=C/C(OC(=O)CC(C)CC)[C@H]12)OC3=O (stereo partly drawn) [DETD-18]	< 5.00
C=C1C(=O)OC2CC3=C[C@@H](C/C(C)=C/C(OC(=O)CC(O)(C(C)C)C(C)C)[C@H]12)OC3=O (stereo partly drawn) [DETD-23]	< 5.00
C=C1C(=O)OC2CC3=C[C@@H](C/C(C)=C/C(OC(=O)CC(C)C)[C@H]12)OC3=O (stereo partly drawn) [DETD-10]	< 5.00
C=C1C(=O)OC2CC3=C[C@@H](C/C(C)=C/C(OC(=O)C(CC)CC)[C@H]12)OC3=O (stereo partly drawn) [DETD-16]	< 5.00

tested on: RAW264.7 (normal macrophage); test: MTT cell viability assay, RAW264.7 macrophages; type: cell-based, mouse; conditions: Mus musculus, RAW264.7, 24 h
Procedure: as §1, §4

Structure (SMILES)	pIC50
C=C1C(=O)OC2CC3=C[C@@H](C/C(C)=C/C(OC(=O)CC(C)CC)[C@H]12)OC3=O (stereo partly drawn) [DETD-18]	< 5.00
C=C1C(=O)OC2CC3=C[C@@H](C/C(C)=C/C(OC(=O)CC(O)(C(C)C)C(C)C)[C@H]12)OC3=O (stereo partly drawn) [DETD-23]	< 5.00
C=C1C(=O)OC2CC3=C[C@@H](C/C(C)=C/C(OC(=O)CC(C)C)[C@H]12)OC3=O (stereo partly drawn) [DETD-10]	< 5.00
C=C1C(=O)OC2CC3=C[C@@H](C/C(C)=C/C(OC(=O)C(CC)CC)[C@H]12)OC3=O (stereo partly drawn) [DETD-16]	< 5.00

tested on: MeWo (No NRAS or BRAF mutation); test: MTT cell viability assay, MeWo melanoma; type: cell-based, human; conditions: Homo sapiens, MeWo, 24 h
Procedure: as §1, §3

Structure (SMILES)	pIC50
C=C1C(=O)OC2CC3=C[C@@H](C/C(C)=C/C(OC(=O)CC(C)CC)[C@H]12)OC3=O (stereo partly drawn) [DETD-18]	< 5.00
C=C1C(=O)OC2CC3=C[C@@H](C/C(C)=C/C(OC(=O)CC(O)(C(C)C)C(C)C)[C@H]12)OC3=O (stereo partly drawn) [DETD-23]	< 5.00
C=C1C(=O)OC2CC3=C[C@@H](C/C(C)=C/C(OC(=O)CC(C)C)[C@H]12)OC3=O (stereo partly drawn) [DETD-10]	< 5.00
C=C1C(=O)OC2CC3=C[C@@H](C/C(C)=C/C(OC(=O)C(CC)CC)[C@H]12)OC3=O (stereo partly drawn) [DETD-16]	< 5.00

tested on: TS/A (ER+, Her2−) murine mammary cancer cells; test: MTT cell viability assay, TS/A cells; type: cell-based; conditions: Mus musculus, 24 h, read-out: IC50 on cell viability, TS/A (ER+, Her2−)
Procedure: as §1, §2

Structure (SMILES)	pIC50
C=C1C(=O)OC2CC3=C[C@@H](C/C(C)=C/C(OC(=O)CC(C)CC)[C@H]12)OC3=O (stereo partly drawn) [DETD-18]	5.48
C=C1C(=O)OC2CC3=C[C@@H](C/C(C)=C/C(OC(=O)CC(O)(C(C)C)C(C)C)[C@H]12)OC3=O (stereo partly drawn) [DETD-23]	5.62
C=C1C(=O)OC2CC3=C[C@@H](C/C(C)=C/C(OC(=O)CC(C)C)[C@H]12)OC3=O (stereo partly drawn) [DETD-10]	5.57
C=C1C(=O)OC2CC3=C[C@@H](C/C(C)=C/C(OC(=O)C(CC)CC)[C@H]12)OC3=O (stereo partly drawn) [DETD-16]	5.68
